The supplement of paper PMC10307832

What was measured:
Test in all cases: relative viability (nuclei count vs DMSO), 5 days (fraction); higher = more cells survive
[1] = compound: CS(=O)(=O)c1ccc(C(=O)Nc2ccc(Cl)c(-c3ccccn3)c2)c(Cl)c1 [Vismodegib] + Cc1nc(NC(=O)N2CCC[C@H]2C(N)=O)sc1-c1ccnc(C(C)(C)C(F)(F)F)c1 [Alpelisib] (partner 2 µM)
In short: (§1)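 The day after seeding in 1536-well plates, lung cancer cell lines were treated by pin tool with a single drug, or with a fixed anchor-drug dose together with five library-drug doses (not always all listed) in √10 steps. After 5 days, a combined fix-and-stain solution (final 0.05% Triton X-100, 1% formaldehyde, 1 ug/ml Hoechst) was added. Nuclei counted on 4× images gave relative viability as treated counts over vehicle counts, reported as the median of duplicate plates.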

[2] = compound: CS(=O)(=O)c1ccc(C(=O)Nc2ccc(Cl)c(-c3ccccn3)c2)c(Cl)c1 [Vismodegib] + Nc1ncn([C@H]2C[C@H](O)[C@@H](CO)O2)c(=O)n1 [Decitabine] (partner 2 µM)
In short: as §1

[3] = compound: N#CC[C@H](C1CCCC1)n1cc(-c2ncnc3[nH]ccc23)cn1 [Ruxolitinib] + O=C(CCCCCCC(=O)Nc1ccccc1)NO [Vorinostat] (partner 1 µM)
In short: as §1

[4] = compound: N#CC[C@H](C1CCCC1)n1cc(-c2ncnc3[nH]ccc23)cn1 [Ruxolitinib] + CC(=O)c1c(C)c2cnc(Nc3ccc(N4CCNCC4)cn3)nc2n(C2CCCC2)c1=O [Palbociclib] (partner 0.5 µM)
In short: as §1

Row | Cell Line | relative viability ([1]; first compound 0.08 µM) | relative viability ([1]; first compound 0.253 µM) | relative viability ([1]; first compound 0.8 µM) | relative viability ([1]; first compound 2.53 µM) | relative viability ([1]; first compound 8 µM) | relative viability ([2]; first compound 0.08 µM) | relative viability ([2]; first compound 0.253 µM) | relative viability ([2]; first compound 0.8 µM) | relative viability ([2]; first compound 2.53 µM) | relative viability ([2]; first compound 8 µM) | relative viability ([3]; first compound 0.08 µM) | relative viability ([3]; first compound 0.253 µM) | relative viability ([3]; first compound 0.8 µM) | relative viability ([3]; first compound 2.53 µM) | relative viability ([3]; first compound 8 µM) | relative viability ([4]; first compound 0.08 µM) | relative viability ([4]; first compound 0.253 µM) | relative viability ([4]; first compound 0.8 µM) | relative viability ([4]; first compound 2.53 µM) | relative viability ([4]; first compound 8 µM)
1 | NCI-H1651 | 0.922 | 0.877 | 1.04 | 0.81 | 1.09 | 0.581 | 0.617 | 0.682 | 0.528 | 0.579 | 0.601 | 0.52 | 0.523 | 0.472 | 0.573 | 0.506 | 0.496 | 0.524 | 0.502 | 0.525
2 | NCI-H661 | 0.263 | 0.701 | 0.71 | 0.595 | 0.84 | 0.47 | 0.528 | 0.549 | 0.575 | 0.577 | 0.833 | 0.822 | 0.839 | 0.792 | 0.802 | 0.425 | 0.436 | 0.427 | 0.417 | 0.381
3 | NCI-H1944 | 0.768 | 0.862 | 0.744 | 0.809 | 0.777 | 0.428 | 0.413 | 0.456 | – | 0.405 | 0.63 | 0.537 | 0.605 | 0.483 | 0.521 | 0.33 | 0.321 | 0.375 | 0.31 | 0.318
4 | HCC-44 | 0.787 | 0.771 | 0.717 | 0.799 | 0.818 | 0.945 | 0.942 | 0.93 | 0.937 | 1.04 | 1.11 | 1.06 | 1.03 | 1.04 | 1.05 | 0.995 | 1.03 | 0.98 | 0.942 | 0.947
5 | NCI-H358 | 0.75 | 0.916 | 0.695 | 0.868 | 1.04 | 0.21 | 0.228 | 0.21 | 0.256 | 0.225 | 0.624 | 0.645 | 0.673 | 0.509 | 0.417 | 0.167 | 0.125 | 0.16 | 0.14 | 0.127
6 | 201T | 1.03 | 0.996 | 0.994 | 1.07 | 0.984 | 0.826 | 0.813 | 0.869 | 0.848 | 0.846 | 1.12 | 1.16 | 1.21 | 1.25 | 1.17 | 0.366 | 0.362 | 0.407 | 0.433 | 0.397
7 | HOP-62 | 0.92 | 0.906 | 0.978 | 0.919 | 1.12 | 0.227 | 0.22 | 0.208 | 0.22 | 0.183 | 0.606 | 0.59 | 0.688 | 0.594 | 0.685 | 0.454 | 0.451 | 0.45 | 0.435 | 0.411
8 | NCI-H1975 | 0.621 | 0.649 | 0.617 | 0.611 | 0.721 | 0.386 | 0.444 | 0.396 | 0.414 | 0.404 | 0.736 | 0.633 | 0.691 | 0.59 | 0.483 | 0.492 | 0.395 | 0.612 | 0.469 | 0.277
9 | NCI-H1755 | 0.921 | 0.912 | 0.957 | 0.868 | 0.942 | 0.686 | 0.727 | 0.693 | 0.677 | 0.723 | 0.749 | 0.713 | 0.766 | 0.712 | 0.61 | 0.505 | 0.468 | 0.466 | 0.452 | 0.391
10 | NCI-H2023 | 0.584 | 0.534 | 0.626 | 0.546 | 0.495 | 0.224 | 0.197 | 0.285 | 0.246 | 0.236 | 0.661 | 0.667 | 0.95 | 0.581 | 0.798 | 0.42 | 0.4 | 0.361 | 0.387 | 0.397
11 | EKVX | 0.946 | 0.974 | 0.907 | 0.871 | 0.875 | – | 0.383 | 0.327 | 0.297 | 0.336 | 0.57 | 0.744 | 0.719 | 0.628 | 0.588 | – | 0.358 | 0.393 | 0.34 | 0.333
12 | LCLC-97TM1 | – | – | 0.287 | – | 0.287 | 0.214 | 0.25 | 0.351 | 0.229 | 0.223 | 0.741 | 0.604 | 0.734 | 0.722 | 0.63 | 0.235 | 0.185 | 0.213 | 0.192 | 0.213
13 | NCI-H2085 | 0.899 | 0.841 | 0.992 | 0.931 | 0.962 | 0.548 | 0.461 | 0.544 | 0.56 | 0.561 | 0.865 | 0.802 | 0.891 | 0.667 | 0.695 | 0.453 | 0.468 | 0.474 | 0.39 | 0.369
14 | BEN | 1.03 | 0.988 | 0.863 | 0.984 | 1.02 | 0.684 | 0.691 | 0.648 | 0.697 | 0.782 | 0.524 | 0.557 | 0.653 | 0.519 | 0.586 | 0.488 | 0.456 | 0.504 | 0.503 | 0.51
15 | HARA | 0.833 | 0.863 | 0.817 | 0.8 | 0.788 | 0.553 | – | 0.514 | 0.509 | 0.55 | 0.594 | 0.576 | 0.566 | 0.488 | 0.512 | 0.301 | 0.273 | 0.286 | 0.228 | 0.253
16 | PC-14 | 0.884 | 0.888 | 1.03 | 0.907 | 0.926 | 0.224 | 0.198 | 0.237 | 0.199 | 0.234 | – | 0.788 | 1.05 | 0.658 | 0.652 | – | 0.546 | 0.595 | 0.46 | 0.304
17 | SW 1573 | 0.7 | 0.691 | 0.717 | – | 0.754 | – | 0.425 | 0.509 | 0.519 | 0.615 | 0.927 | 1.08 | 0.995 | 0.584 | 0.727 | 0.436 | 0.382 | 0.411 | 0.546 | 0.299
